# Measured values: paper PMC8757608 (Journal of Enzyme Inhibition and Medicinal Chemistry, 2022)
# Where two headings read alike, the source gives them in different places.
# What was measured:
# SR (leukemia) = assay: NCI-60 single dose screen, SR; type: cell-based; settings: Homo sapiens, read-out: percent growth inhibition
# LOX IMVI (melanoma) = assay: NCI-60 single dose screen, LOX IMVI; type: cell-based; settings: Homo sapiens, read-out: percent growth inhibition
# IGROV1 (ovarian cancer) = assay: NCI-60 single dose screen, IGROV1; type: cell-based; settings: Homo sapiens, IGROV-1, read-out: percent growth inhibition
# DU-145 (prostate cancer) = assay: NCI-60 single dose screen, DU-145; type: cell-based; settings: Homo sapiens, DU-145, read-out: percent growth inhibition
# MCF7 (breast cancer) = assay: NCI-60 single dose screen, MCF7; type: cell-based; settings: Homo sapiens, MCF7, read-out: percent growth inhibition
# full NCI 60-cell panel = assay: NCI-60 single dose screen, statements over several cell lines; type: cell-based, human; settings: for inhibition at 10 µM: Homo sapiens
# MCF7 cell lines = assay: DNA-flow cytometry cell cycle analysis, MCF7; type: cell-based, human; settings: MCF7, 24 h at IC50
# DU-145 cell lines = assay: DNA-flow cytometry cell cycle analysis, DU-145; type: cell-based, human; settings: DU-145, 24 h at IC50
# MCF-7 cells = assay: Annexin V-FITC apoptosis assay, MCF-7; type: cell-based, human; settings: MCF-7 cells exposed to IC50, 24 h; for percentage of annexin V-FITC positive apoptotic cells (UR + LR): vehicle control 2.0%
# DU-145 cells = assay: Annexin V-FITC apoptosis assay, DU-145; type: cell-based, human; settings: DU-145 cells exposed to IC50, 24 h; for percent of annexin V-FITC positive apoptotic cells (UR + LR): vehicle control 1.7%
# [1] = test system: NCI-H522 (non-small cell lung cancer); assay: NCI-60 single dose screen, NCI-H522; type: cell-based; settings: Homo sapiens, NCI-H522, read-out: inhibitory activity (cell growth inhibition)
# [2] = test system: MCF-7 breast cancer cell line; assay: MTT assay for cell viability, MCF7; type: cell-based; settings: Homo sapiens, MCF7, read-out: Cytotoxicity IC50 (µM ± SE) MCF7, MTT assay, MCF7
# [3] = 60 cell, read-out: cell growth inhibition
structure (smiles),measurement,setting,value
"Cc1cc(=O)[nH]c(=O)n1Cc1cn(-c2c3ccccc3nc3ccccc23)nn1 [Compound 8, 1-((1-(Acridin-9-yl)-1H-1,2,3-triazol-4-yl)methyl)-6-methylpyrimidine-2,4(1H,3H)-dione]",inhibition at 10 µM,SR (leukemia),88.6%
same,inhibition at 10 µM,LOX IMVI (melanoma),84.8%
same,inhibition at 10 µM,IGROV1 (ovarian cancer),67%
same,inhibition at 10 µM,DU-145 (prostate cancer),84.3%
same,inhibition at 10 µM,MCF7 (breast cancer),97.5%
same,inhibition at 10 µM,full NCI 60-cell panel; [3],61 to 97%
same,%G1,MCF7 cell lines,24.4%
same,%G2/M,MCF7 cell lines,48.3%
same,%Pre-G1,MCF7 cell lines,24.4%
same,%G1,DU-145 cell lines,34.6%
same,%G2/M,DU-145 cell lines,39.6%
same,%Pre-G1,DU-145 cell lines,12.9%
same,increase of annexin V-FITC positive apoptotic cells compared with vehicle control,MCF-7 cells,10 fold
same,percentage of annexin V-FITC positive apoptotic cells (UR + LR),MCF-7 cells,20.3%
same,rise of annexin V-FITC positive apoptotic cells compared with vehicle control,DU-145 cells,sixfold
same,percent of annexin V-FITC positive apoptotic cells (UR + LR),DU-145 cells,10.2%
"O=c1ccn(Cc2cn(-c3c4ccccc4nc4ccccc34)nn2)c(=O)[nH]1 [Compound 9, 1-((1-(Acridin-9-yl)-1H-1,2,3-triazol-4-yl)methyl)pyrimidine-2,4(1H,3H)–dione]",inhibition at 10 µM,full NCI 60-cell panel; [3],61 to 97%
same,inhibition at 10 µM,full NCI 60-cell panel; read-out: cell growth inhibition,61.3 to 67%
same,%G2/M,MCF7 cell lines,39.8%
same,%G1,DU-145 cell lines,41.5%
same,%G2/M,DU-145 cell lines,29.1%
same,increase of annexin V-FITC positive apoptotic cells compared with vehicle control,MCF-7 cells,6.4 fold
same,percentage of annexin V-FITC positive apoptotic cells (UR + LR),MCF-7 cells,13%
"O=C1NC(c2ccccc2)(c2ccccc2)C(=O)N1Cc1cn(-c2c3ccccc3nc3ccccc23)nn1 [Compound 10, 3-((1-(Acridin-9-yl)-1H-1,2,3-triazol-4-yl)methyl)-5,5-diphenylimidazolidine-2,4-dione]",inhibition at 10 µM,[1],84.1%
same,inhibition at 10 µM,full NCI 60-cell panel; [3],61 to 97%
same,inhibition at 10 µM,full NCI 60-cell panel; read-out: cell growth inhibition percent,60.8 to 68.6%
same,%G1,MCF7 cell lines,43.5%
same,%G2/M,MCF7 cell lines,15.3%
same,%Pre-G1,MCF7 cell lines,13.2%
same,%G1,DU-145 cell lines,42.9%
same,%G2/M,DU-145 cell lines,20.9%
same,increase of annexin V-FITC positive apoptotic cells compared with vehicle control,MCF-7 cells,5.3 fold
same,percentage of annexin V-FITC positive apoptotic cells (UR + LR),MCF-7 cells,10.7%
same,rise of annexin V-FITC positive apoptotic cells compared with vehicle control,DU-145 cells,2 fold
same,percent of annexin V-FITC positive apoptotic cells (UR + LR),DU-145 cells,3.6%
"CCCC(CCC)C(=O)OCc1cn(-c2c3ccccc3nc3ccccc23)nn1 [Compound 12, 1-(1-(Acridin-9-yl)-1H-1,2,3-triazol-4-yl)methyl valproate]",cell growth inhibition (in words),"full NCI 60-cell panel; against all cancer cell lines, single dose of 10 μM",either low or complete absence of cell growth inhibition
COc1cccc2c1C(=O)c1c(O)c3c(c(O)c1C2=O)C[C@@](O)(C(=O)CO)C[C@@H]3O[C@H]1C[C@H](N)[C@H](O)[C@H](C)O1 [Doxorubicin],IC50,[2],2 µM
